PubChem BioAssay AID256 (DTP/NCI, 2004)
Several values for one entry are separate records, joined by “and”; a condition that tells them apart may be missing. Identical values can stand only once. Toxic doses and inconclusive results are not listed. Rule for the calls: active = survival T/C of 150% or more; inactive = T/C below 125% in these data.

System: CD2F1 mice, L1210 leukemia ip, survival T/C
Experiment: NCI In Vivo Anticancer Drug Screen. Data for tumor model L1210 Leukemia (intraperitoneal) in CD2F1 (CDF1) mice
Conditions: higher = longer survival
Method in brief: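 Implant tumor; dose compound or vehicle; measure endpoint in both groups; report treated divided by control.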

[1] = endpoint: mean survival time, dose: 100.0 mg/kg/injection, schedule: Q04DX003 (ip), vehicle: saline
[2] = endpoint: mean survival time, dose: 200.0 mg/kg/injection, schedule: Q04DX003 (ip), vehicle: saline
[3] = endpoint: mean survival time, dose: 100.0 mg/kg/injection, schedule: Q04DX003 (ip), vehicle: saline with Tween-80
[4] = endpoint: mean survival time, dose: 200.0 mg/kg/injection, schedule: Q04DX003 (ip), vehicle: saline with Tween-80
[5] = endpoint: mean survival time, dose: 100.0 mg/kg/injection, schedule: Q01DX001 (ip), vehicle: saline
[6] = endpoint: mean survival time, dose: 200.0 mg/kg/injection, schedule: Q01DX001 (ip), vehicle: saline
[7] = endpoint: mean survival time, dose: 400.0 mg/kg/injection, schedule: Q01DX001 (ip), vehicle: saline
[8] = endpoint: mean survival time, dose: 75.0 mg/kg/injection, schedule: Q01DX001 (ip), vehicle: saline
[9] = endpoint: mean survival time, dose: 12.5 mg/kg/injection, schedule: Q01DX009 (ip), vehicle: saline with Tween-80
[10] = endpoint: mean survival time, dose: 25.0 mg/kg/injection, schedule: Q01DX009 (ip), vehicle: saline with Tween-80
[11] = endpoint: mean survival time, dose: 100.0 mg/kg/injection, schedule: Q01DX009 (ip), vehicle: Klucel (hydroxypropylcellulose) (HPC)
[12] = endpoint: mean survival time, dose: 50.0 mg/kg/injection, schedule: Q01DX009 (ip), vehicle: saline with Tween-80
[13] = endpoint: mean survival time, dose: 100.0 mg/kg/injection, schedule: Q01DX009 (ip), vehicle: saline with Tween-80
[14] = endpoint: mean survival time, dose: 75.0 mg/kg/injection, schedule: Q01DX001 (ip), vehicle: other
[15] = endpoint: mean survival time, dose: 150.0 mg/kg/injection, schedule: Q01DX001 (ip), vehicle: other
[16] = endpoint: mean survival time, dose: 300.0 mg/kg/injection, schedule: Q01DX001 (ip), vehicle: other
[17] = endpoint: mean survival time, dose: 25.0 mg/kg/injection, schedule: Q04DX002 (ip), vehicle: saline with Tween-80
[18] = endpoint: mean survival time, dose: 50.0 mg/kg/injection, schedule: Q04DX002 (ip), vehicle: saline with Tween-80
[19] = endpoint: mean survival time, dose: 100.0 mg/kg/injection, schedule: Q04DX002 (ip), vehicle: saline with Tween-80
[20] = endpoint: mean survival time, dose: 400.0 mg/kg/injection, schedule: Q04DX003 (ip), vehicle: saline with Tween-80

Measured: T/C

CN(C)N=Nc1ccc(S(N)(=O)=O)cc1C(N)=O
inactive: endpoint: mean survival time, dose: 18.8 mg/kg/injection, schedule: Q01DX009 (ip), vehicle: Klucel (hydroxypropylcellulose) (HPC) 96 % of control and 106 % of control | endpoint: mean survival time, dose: 37.5 mg/kg/injection, schedule: Q01DX009 (ip), vehicle: Klucel (hydroxypropylcellulose) (HPC) 98 % of control and 110 % of control | endpoint: mean survival time, dose: 75.0 mg/kg/injection, schedule: Q01DX009 (ip), vehicle: Klucel (hydroxypropylcellulose) (HPC) 120 % of control | endpoint: mean survival time, dose: 300.0 mg/kg/injection, schedule: Q01DX009 (ip), vehicle: Klucel (hydroxypropylcellulose) (HPC) 117 % of control and 111 % of control

N#CN1CCOCC1
inactive: endpoint: mean survival time, dose: 100.0 mg/kg/injection, schedule: Q01DX009 (ip), vehicle: saline 101 % of control | [1] 91 % of control | endpoint: mean survival time, dose: 200.0 mg/kg/injection, schedule: Q01DX009 (ip), vehicle: saline 110 % of control | [2] 96 % of control

N#Cc1c(F)c(F)c(NN)c(F)c1F
inactive: [3] 93 % of control | [4] 89 % of control

O=[N+]([O-])c1ccc(S/C=C/c2ccccc2)cc1
inactive: endpoint: median survival time, dose: 25.0 mg/kg/injection, schedule: Q04DX002 (ip), vehicle: saline with Tween-80 100 % of control | endpoint: median survival time, dose: 50.0 mg/kg/injection, schedule: Q04DX002 (ip), vehicle: saline with Tween-80 110 % of control | endpoint: median survival time, dose: 100.0 mg/kg/injection, schedule: Q04DX002 (ip), vehicle: saline with Tween-80 100 % of control | endpoint: median survival time, dose: 200.0 mg/kg/injection, schedule: Q04DX002 (ip), vehicle: saline with Tween-80 100 % of control

COc1cc2c(cc1OC)C(Cc1ccccc1)=NCC2
inactive: endpoint: mean survival time, dose: 50.0 mg/kg/injection, schedule: Q01DX009 (ip), vehicle: saline sonified 101 % of control | endpoint: mean survival time, dose: 100.0 mg/kg/injection, schedule: Q01DX009 (ip), vehicle: saline sonified 101 % of control | [3] 94 % of control | [4] 92 % of control

CCOC(=O)C1CC2(CC(C(=O)O)C2)C1 (stereo unspecified)
inactive: [5] 97 % of control | [6] 93 % of control | [7] 105 % of control

O=C1N(CCO)CNC1(c1ccccc1)c1ccccc1
inactive: endpoint: mean survival time, dose: 50.0 mg/kg/injection, schedule: Q04DX003 (ip), vehicle: saline with Tween-80 94 % of control | [3] 107 % of control | [4] 98 % of control

O=C(OCC1OC(n2cnc(=O)[nH]c2=O)C(OC(=O)c2ccccc2)C1OC(=O)c1ccccc1)c1ccccc1 (stereo unspecified)
inactive: endpoint: mean survival time, dose: 1.25 mg/kg/injection, schedule: Q04DX003 (ip), vehicle: saline 96 % of control | endpoint: mean survival time, dose: 2.5 mg/kg/injection, schedule: Q04DX003 (ip), vehicle: saline 101 % of control | endpoint: mean survival time, dose: 5.0 mg/kg/injection, schedule: Q04DX003 (ip), vehicle: saline 98 % of control | endpoint: mean survival time, dose: 10.0 mg/kg/injection, schedule: Q04DX003 (ip), vehicle: saline 101 % of control | endpoint: mean survival time, dose: 20.0 mg/kg/injection, schedule: Q04DX003 (ip), vehicle: saline 98 % of control | endpoint: mean survival time, dose: 40.0 mg/kg/injection, schedule: Q04DX003 (ip), vehicle: saline 98 % of control

CN(CCCCl)CCCCl
inactive: [8] 103 % of control

CC(C)=CC(C)=Nc1ccccc1
inactive: [5] 90 % of control | [1] 102 % of control | [6] 96 % of control | [2] 96 % of control | [7] 98 % of control | endpoint: mean survival time, dose: 400.0 mg/kg/injection, schedule: Q04DX003 (ip), vehicle: saline 104 % of control

O=C(NNC1CCCCC1)c1ccccc1
inactive: endpoint: mean survival time, dose: 100.0 mg/kg/injection, schedule: Q01DX009 (ip), vehicle: acetone 103 % of control

O=C(COc1ccc(Cl)c(Cl)c1)Nc1ccc(Cl)cc1
inactive: endpoint: mean survival time, dose: 6.25 mg/kg/injection, schedule: Q01DX009 (ip), vehicle: saline with Tween-80 98 % of control | [9] 98 % of control | [10] 98 % of control

O=S(=O)(F)c1cc(Cl)c(O)c(S(=O)(=O)F)c1
inactive: endpoint: mean survival time, dose: 25.0 mg/kg/injection, schedule: Q01DX009 (ip), vehicle: Klucel (hydroxypropylcellulose) (HPC) 97 % of control | endpoint: mean survival time, dose: 50.0 mg/kg/injection, schedule: Q01DX009 (ip), vehicle: Klucel (hydroxypropylcellulose) (HPC) 103 % of control | [11] 101 % of control

NNC(=O)c1cc(NN)ccn1
inactive: [12] 102 % of control | [13] 100 % of control | [3] 100 % of control | [4] 98 % of control

CO[C@@]12[C@@H]3N[C@@H]3CN1C1=C(C(=O)C(Nc3ccc(O)cc3C)=C(C)C1=O)[C@@H]2COC(N)=O
inactive: endpoint: mean survival time, dose: 1.5 mg/kg/injection, schedule: Q01DX001 (ip), vehicle: water 119 % of control and 111 % of control | endpoint: mean survival time, dose: 3.0 mg/kg/injection, schedule: Q01DX001 (ip), vehicle: water 122 % of control and 111 % of control | endpoint: mean survival time, dose: 6.0 mg/kg/injection, schedule: Q01DX001 (ip), vehicle: water 120 % of control and 122 % of control | endpoint: mean survival time, dose: 12.0 mg/kg/injection, schedule: Q01DX001 (ip), vehicle: water 120 % of control

CCOc1ccc(/C=C/C(=O)c2ccc(C)cc2)cc1OCC
inactive: endpoint: mean survival time, dose: 37.5 mg/kg/injection, schedule: Q01DX009 (ip), vehicle: saline 98 % of control | endpoint: mean survival time, dose: 75.0 mg/kg/injection, schedule: Q01DX009 (ip), vehicle: saline 98 % of control | endpoint: mean survival time, dose: 150.0 mg/kg/injection, schedule: Q01DX009 (ip), vehicle: saline 113 % of control

Nc1nc2c(ncn2-c2ccc(OCCCNC(=O)c3cccc(S(=O)(=O)F)c3)cc2)c(=O)[nH]1
inactive: endpoint: mean survival time, dose: 75.0 mg/kg/injection, schedule: Q01DX001 (ip), vehicle: saline with Tween-80 92 % of control | endpoint: mean survival time, dose: 150.0 mg/kg/injection, schedule: Q01DX001 (ip), vehicle: saline with Tween-80 103 % of control | endpoint: mean survival time, dose: 300.0 mg/kg/injection, schedule: Q01DX001 (ip), vehicle: saline with Tween-80 101 % of control

CCOC(=O)N1CCN(N=Nc2c(C(=O)OC)n[nH]c2C)CC1
inactive: [14] 103 % of control | [15] 105 % of control | [16] 105 % of control

O=C1/C(=C/c2ccccc2[N+](=O)[O-])CCc2ccccc21
inactive: [11] 97 % of control | endpoint: mean survival time, dose: 200.0 mg/kg/injection, schedule: Q01DX009 (ip), vehicle: Klucel (hydroxypropylcellulose) (HPC) 91 % of control | endpoint: mean survival time, dose: 400.0 mg/kg/injection, schedule: Q01DX009 (ip), vehicle: Klucel (hydroxypropylcellulose) (HPC) 96 % of control

CCOC(=O)/N=c1\ccccn1O
inactive: [8] 101 % of control | endpoint: mean survival time, dose: 150.0 mg/kg/injection, schedule: Q01DX001 (ip), vehicle: saline 101 % of control | endpoint: mean survival time, dose: 300.0 mg/kg/injection, schedule: Q01DX001 (ip), vehicle: saline 105 % of control

CC1C(=O)CC(C)(C)C=CC1C1C=CC(C)(C)CC(=O)C1C (stereo unspecified)
inactive: [14] 97 % of control | [15] 97 % of control | [16] 96 % of control

CC(C)P(=O)(CC(=O)O)c1ccccc1 (stereo unspecified)
inactive: [17] 107 % of control | [18] 96 % of control | [19] 100 % of control

CCCCCC(/C=N\N=C\c1ccco1)=C\c1ccccc1
inactive: [3] 93 % of control | [4] 93 % of control | [20] 96 % of control

CCOC(=O)Nc1cc2c(ncn2-c2ccccc2)c(N)n1
inactive: endpoint: mean survival time, dose: 100.0 mg/kg/injection, schedule: Q01DX001 (ip), vehicle: Klucel (hydroxypropylcellulose) (HPC) 98 % of control | endpoint: mean survival time, dose: 200.0 mg/kg/injection, schedule: Q01DX001 (ip), vehicle: Klucel (hydroxypropylcellulose) (HPC) 96 % of control

O=[N+]([O-])c1ccc(S(=O)(=O)O)cc1
inactive: [5] 95 % of control | [6] 105 % of control | [7] 100 % of control

CCOC(=O)c1c2c3c(c(Br)ccc3n(C)c1=O)C(=O)c1ccccc1-2
inactive: [9] 98 % of control | [10] 96 % of control | [12] 98 % of control

CCOC(=O)C(CCC(O)C#N)(NC(C)=O)C(=O)OCC (stereo unspecified)
inactive: [17] 101 % of control | [18] 96 % of control | [19] 100 % of control

CN(C)CCCN1c2ccc(O)cc2Sc2ccc(Cl)cc21
inactive: [10] 90 % of control | [12] 96 % of control | [13] 107 % of control

CSc1ccc(N=C/C=C/c2ccccc2)cc1
inactive: [3] 93 % of control | [20] 91 % of control

CCCC1NNC(CCC)NN1 (stereo unspecified)
inactive: [8] 102 % of control

O=C(O)C1C2C=CC(O2)C1CO (stereo unspecified)
inactive: endpoint: mean survival time, dose: 25.0 mg/kg/injection, schedule: Q04DX002 (ip), vehicle: saline 103 % of control | endpoint: mean survival time, dose: 50.0 mg/kg/injection, schedule: Q04DX002 (ip), vehicle: saline 100 % of control | endpoint: mean survival time, dose: 100.0 mg/kg/injection, schedule: Q04DX002 (ip), vehicle: saline 100 % of control
